Common to all, as to type: functional
Experiment [1] concerns Rattus norvegicus. Nature of the experiment: In vivo toxicity against Pneumocystis carinii in immunosuppressed rats at a dose of 22 umol/kg/day administered by tail vein injection.
For experiment [2], the system named is Rattus norvegicus. Nature of the experiment: In vivo toxicity against Pneumocystis carinii in immunosuppressed rats at a dose of 33 umol/kg/day administered orally.
The test system of experiment [3] is Rattus norvegicus. Description: Percent salinte-treated controls were evaluated against Pneumocystis carinii in immunosuppressed rats at a dose of 33 umol/kg/day administered orally.
Experiment [4] concerns Rattus norvegicus. Description: Percent salinte-treated controls were evaluated against Pneumocystis carinii in immunosuppressed rats at a dose of 22 umol/kg/day administered by tail vein injection.
For experiment [5], the system named is Rattus norvegicus. Description: In vivo toxicity against Pneumocystis carinii in immunosuppressed rats at a dose of 5.5 umol/kg/day administered by tail vein injection.
Experiment [6] deals with Rattus norvegicus. Description: In vivo toxicity against Pneumocystis carinii in immunosuppressed rats at a dose of 11 umol/kg/day administered orally.
The subject of experiment [7] is Rattus norvegicus. Nature of the experiment: Percent salinte-treated controls were evaluated against Pneumocystis carinii in immunosuppressed rats at a dose of 2.7 umol/kg/day administered by tail vein injection.
Experiment [8] concerns Rattus norvegicus. Nature of the experiment: Percent salinte-treated controls were evaluated against Pneumocystis carinii in immunosuppressed rats at a dose of 11 umol/kg/day administered by tail vein injection.
Experiment [9] deals with Rattus norvegicus. Nature of the experiment: In vivo toxicity against Pneumocystis carinii in immunosuppressed rats at a dose of 11 umol/kg/day administered by tail vein injection.
Experiment [10] deals with Rattus norvegicus. Nature of the experiment: Percent salinte-treated controls were evaluated against Pneumocystis carinii in immunosuppressed rats at a dose of 5.5 umol/kg/day administered orally.
For experiment [11], the system named is Rattus norvegicus. Nature of the experiment: In vivo toxicity against Pneumocystis carinii in immunosuppressed rats at a dose of 2.7 umol/kg/day administered by tail vein injection.
The subject of experiment [12] is Rattus norvegicus. Nature of the experiment: In vivo toxicity against Pneumocystis carinii in immunosuppressed rats at a dose of 0.3 umol/kg/day administered by tail vein injection.
Experiment [13] deals with Rattus norvegicus. Nature of the experiment: Percent salinte-treated controls were evaluated against Pneumocystis carinii in immunosuppressed rats at a dose of 5.5 umol/kg/day administered by tail vein injection.
For experiment [14], the system named is Rattus norvegicus. Nature of the experiment: Percent salinte-treated controls were evaluated against Pneumocystis carinii in immunosuppressed rats at a dose of 0.3 umol/kg/day administered by tail vein injection.
Experiment [15] concerns Rattus norvegicus. Nature of the experiment: In vivo toxicity against Pneumocystis carinii in immunosuppressed rats at a dose of 5.5 umol/kg/day administered orally.
The test system of experiment [16] is Rattus norvegicus. Nature of the experiment: Percent salinte-treated controls were evaluated against Pneumocystis carinii in immunosuppressed rats at a dose of 11 umol/kg/day administered orally.
The subject of experiment [17] is Rattus norvegicus. Description: In vivo toxicity against Pneumocystis carinii in immunosuppressed rats at a dose of 13.3 umol/kg/day administered by tail vein injection.
Experiment [18] deals with Rattus norvegicus. Description: In vivo toxicity against Pneumocystis carinii in immunosuppressed rats at a dose of 66.3 umol/kg/day administered orally.
Experiment [19] relates to Rattus norvegicus. Nature of the experiment: In vivo toxicity against Pneumocystis carinii in immunosuppressed rats at a dose of 39.8 umol/kg/day administered orally.
Experiment [20] deals with Rattus norvegicus. Nature of the experiment: Percent salinte-treated controls were evaluated against Pneumocystis carinii in immunosuppressed rats at a dose of 13.3 umol/kg/day administered by tail vein injection; Not available.
Experiment [21] has as its system Rattus norvegicus. Description: In vivo toxicity against Pneumocystis carinii in immunosuppressed rats at a dose of 26.6 umol/kg/day administered by tail vein injection.
Experiment [22] relates to Rattus norvegicus. Description: In vivo toxicity against Pneumocystis carinii in immunosuppressed rats at a dose of 0.03 umol/kg/day administered by tail vein injection.
In experiment [23] the test system is Rattus norvegicus. Nature of the experiment: Percent salinte-treated controls were evaluated against Pneumocystis carinii in immunosuppressed rats at a dose of 39.8 umol/kg/day administered orally.
Experiment [24] concerns Rattus norvegicus. Description: Percent salinte-treated controls were evaluated against Pneumocystis carinii in immunosuppressed rats at a dose of 0.03 umol/kg/day administered by tail vein injection.
For experiment [25], the system named is Rattus norvegicus. Nature of the experiment: Percent salinte-treated controls were evaluated against Pneumocystis carinii in immunosuppressed rats at a dose of 66.3 umol/kg/day administered orally.
In experiment [26] the test system is Rattus norvegicus. Description: In vivo toxicity against Pneumocystis carinii in immunosuppressed rats at a dose of 22 umol/kg/day administered orally.
The test system of experiment [27] is Rattus norvegicus. Description: Percent salinte-treated controls were evaluated against Pneumocystis carinii in immunosuppressed rats at a dose of 22 umol/kg/day administered orally.

In the case of `CCONC(=N)c1ccc(-c2ccc(-c3ccc(C(=N)NOCC)cc3)o2)cc1`, the figures for the Toxicity in [1] and in experiment [2] were 1 and 0, respectively. Further, the figures for the Saline control in experiment [3] and in [4] were 121.5% and 104.7%, respectively.

With `N=C(NO)c1ccc(-c2ccc(-c3ccc(/C(N)=N\O)cc3)o2)cc1`, the Toxicity in experiment [5] amounted to 1; in experiment [1], 1; in [6], 0; in [9], 1; in experiment [11] it was 0; in experiment [2] it was 0. Also, the Toxicity in experiment [12] and in [15] was 0 throughout. For the same compound, the Saline control in [7] was 54.4%; in experiment [8], 1.37%; in [10] it was 127%; in experiment [3], 3.1%; in experiment [4] it was 0.67%; in experiment [13], 42.3%. Moreover, the Saline control in experiment [14] is listed as 203.6%; in experiment [16], 197.6%.

Consider `N=C(N)c1ccc(-c2ccc(-c3ccc(C(=N)N)cc3)o2)cc1` [FURAMIDINE], for which the Toxicity in [17] is recorded as 0; in experiment [18] it was 0; in experiment [19], 0; in experiment [11] it was 0; in [21] it was 1; in experiment [22] it was 0. The same compound yielded a Toxicity in experiment [12] of 0. For the same compound, the Saline control is on record as 7.26% in [7]; 0.79% in experiment [20]; 42.3% in experiment [23]; 26.3% in experiment [24]; 6.92% in experiment [14]; 25.2% in experiment [25].

On to `CONC(=N)c1ccc(-c2ccc(-c3ccc(C(=N)NOC)cc3)o2)cc1` [PAFURAMIDINE], for which the Toxicity in experiment [1], in [6], in experiment [26], in [2] and in experiment [15] was 0 in each case. Also, the Saline control came out at 264.2% in experiment [10]; 12% in experiment [27]; 1.82% in [3]; 14.3% in experiment [4]; 34.7% in experiment [16].

(Values after ChEMBL document CHEMBL1151527, “Anti-pneumocystis activity of bis-amidoximes and bis-o-alkylamidoximes prodrugs” (1996).)
